Laboratory results published in patent publication US20260216238A1, “TETRATHIOMOLYBDIC ACID FOR USE IN TREATING COPPER METABOLISM-ASSOCIATED DISEASES OR DISORDERS (WILSON DISEASE)” (Alexion Pharmaceuticals, Inc., priority 2023, published 2026).

System: patients with Wilson disease (WD)
Assay: UWDRS Part III total score, functional subscale and individual items (neurological examination)
Assay type: in vivo, human
Protocol: The UWDRS scoring system was developed specifically for the motor and movement disorders associated with chronic copper neurotoxicity in WD. Some individual items/subscales of the UWDRS Part III (arising from a chair, gait, handwriting, and speech) in addition to the UWDRS Parts I, II, and III overall, were assessed to further define the range of burdensome signs and symptoms of WD, so as to further understand the assessment of treatment effects on patients with WD. The UWDRS scores for consciousness (Part I) and abnormal neurologic examination findings (Part III) will be determined by a trained neurologist rater who is blinded to study treatment randomization. These scores were used to provide a rigorous dataset for evaluating changes from baseline.
Unified Wilson Disease Rating Scale (Parts I, II, and III): The UWDRS is a clinical rating scale designed to evaluate the neurological manifestations of WD that generally can be divided into 3 movement disorder syndromes: dystonic, ataxic, and Parkinsonian syndrome. The UWDRS comprises 3 parts: UWDRS Part I (level of consciousness, item 1), UWDRS Part II (a patient-reported review of daily activity items [disability], items 2 to 11), and UWDRS Part III (a detailed neurological examination, items 12 to 34).
The UWDRS Part I and Part III were assessed by a neurologist who is blinded to the treatment randomization, while UWDRS Part II may be reported to a non-blinded member of the study team by the patient, family member, or caregiver. The UWDRS has not been formally evaluated in adolescents. However, the components of Part I (level of consciousness), Part II (patient or caregiver-reported disability) and Part III (neurologic examination findings) were not fundamentally different between adults and adolescents. Patients aged 12 years and older were expected to be able to comply with UWDRS assessments.
Pooled results from all such participants will be integrated together into one timeline to allow analyses of changes in UWDRS, long-term copper control, and long-term safety laboratory data.
Endpoints (directly measured non-ceruloplasmin-bound copper [dNCC], UWDRS III (rater blinded) total and individual item scores, Clinical Global Impression-Improvement [CGI-I]) were evaluated at baseline (BL) and Week 48 (W48). Normalization (score decrease to 0), improvement (≥1 point decrease), stability (no change), or worsening (≥1 point increase) of total and individual UWDRS III item scores were evaluated at W48.

[1] = Week 144, Study 301 TTM long term set
[2] = difference of changes Wk 48 - BL

bis-choline tetrathiomolybdate [TTM]
UWDRS Part III-handwriting (0-4) change from baseline, Mean [1]: −0.5 | UWDRS Part III-speech (0-4) change from baseline, LSM [1]: −0.3 | UWDRS Part III-speech (0-4) change from baseline, Mean [1]: −0.2 | UWDRS symptom: Arising from chair (Wk 48): 86 | UWDRS symptom: Arm and hand Dystonia (Wk 48): 67 | UWDRS symptom: Cervical Dystonia (Wk 48): 82 | UWDRS symptom: Chorea (Wk 48): 91 | UWDRS symptom: Facial Expression (Wk 48): 58 | UWDRS symptom: Finger Taps (Wk 48): 59 | UWDRS symptom: Finger to Nose (Wk 48): 76 | UWDRS symptom: Gait (Wk 48): 63 | UWDRS symptom: Handwriting (Wk 48): 71 | UWDRS symptom: Head Tremor (Wk 48): 89 | UWDRS symptom: Involuntary Crying (Wk 48): 99 | UWDRS symptom: Jaw Tremor (Wk 48): 99 | UWDRS symptom: Leg Ability (Wk 48): 66 | UWDRS symptom: Oculomotor (Wk 48): 87 | UWDRS symptom: Postural Arm Tremor (Wk 48): 58 | UWDRS symptom: Postural Leg Tremor (Wk 48): 73 | UWDRS symptom: Posture (Wk 48): 71 | UWDRS symptom: Pyramidal Signs (Wk 48): 87 | UWDRS symptom: RAM of Hands (Wk 48): 62 | UWDRS symptom: Rigidity (Wk 48): 72 | UWDRS symptom: Speech (Wk 48): 51 | UWDRS symptom: Stereotyped Actions (Wk 48): 89 | UWDRS symptom: Tremor at rest (Wk 48): 76 | UWDRS symptom: Wing-beating tremor (Wk 48): 67 | UWDRS symptom: Arising from chair, Change (Wk 48 - BL) (Wk 48 - BL): 1 | UWDRS symptom: Arm and hand Dystonia, Change (Wk 48 - BL) (Wk 48 - BL): 3 | UWDRS symptom: Cervical Dystonia, Change (Wk 48 - BL) (Wk 48 - BL): 8 | UWDRS symptom: Chorea, Change (Wk 48 - BL) (Wk 48 - BL): 1 | UWDRS symptom: Facial Expression, Change (Wk 48 - BL) (Wk 48 - BL): 1 | UWDRS symptom: Finger Taps, Change (Wk 48 - BL) (Wk 48 - BL): 15 | UWDRS symptom: Finger to Nose, Change (Wk 48 - BL) (Wk 48 - BL): 9 | UWDRS symptom: Gait, Change (Wk 48 - BL) (Wk 48 - BL): 4 | UWDRS symptom: Handwriting, Change (Wk 48 - BL) (Wk 48 - BL): 16 | UWDRS symptom: Head Tremor, Change (Wk 48 - BL) (Wk 48 - BL): 5 | UWDRS symptom: Involuntary Crying, Change (Wk 48 - BL) (Wk 48 - BL): 0 | UWDRS symptom: Jaw Tremor, Change (Wk 48 - BL) (Wk 48 - BL): 0 | UWDRS symptom: Leg Ability, Change (Wk 48 - BL) (Wk 48 - BL): 4 | UWDRS symptom: Oculomotor, Change (Wk 48 - BL) (Wk 48 - BL): −2 | UWDRS symptom: Postural Arm Tremor, Change (Wk 48 - BL) (Wk 48 - BL): 9 | UWDRS symptom: Postural Leg Tremor, Change (Wk 48 - BL) (Wk 48 - BL): 5 | UWDRS symptom: Posture, Change (Wk 48 - BL) (Wk 48 - BL): 4 | UWDRS symptom: Pyramidal Signs, Change (Wk 48 - BL) (Wk 48 - BL): −2 | UWDRS symptom: RAM of Hands, Change (Wk 48 - BL) (Wk 48 - BL): 14 | UWDRS symptom: Rigidity, Change (Wk 48 - BL) (Wk 48 - BL): 14 | UWDRS symptom: Speech, Change (Wk 48 - BL) (Wk 48 - BL): 7 | UWDRS symptom: Stereotyped Actions, Change (Wk 48 - BL) (Wk 48 - BL): −4 | UWDRS symptom: Tremor at rest, Change (Wk 48 - BL) (Wk 48 - BL): 1 | UWDRS symptom: Wing-beating tremor, Change (Wk 48 - BL) (Wk 48 - BL): 3 | UWDRS symptom: Arising from chair, Difference (TTM − SoC) [2]: 4 | UWDRS symptom: Arm and hand Dystonia, Difference (TTM − SoC) [2]: 3 | UWDRS symptom: Cervical Dystonia, Difference (TTM − SoC) [2]: 5 | UWDRS symptom: Chorea, Difference (TTM − SoC) [2]: 6 | UWDRS symptom: Facial Expression, Difference (TTM − SoC) [2]: 4 | UWDRS symptom: Finger Taps, Difference (TTM − SoC) [2]: 20 | UWDRS symptom: Finger to Nose, Difference (TTM − SoC) [2]: 6 | UWDRS symptom: Gait, Difference (TTM − SoC) [2]: 2 | UWDRS symptom: Handwriting, Difference (TTM − SoC) [2]: 13 | UWDRS symptom: Head Tremor, Difference (TTM − SoC) [2]: 9 | UWDRS symptom: Involuntary Crying, Difference (TTM − SoC) [2]: 3 | UWDRS symptom: Jaw Tremor, Difference (TTM − SoC) [2]: 0 | UWDRS symptom: Leg Ability, Difference (TTM − SoC) [2]: 11 | UWDRS symptom: Oculomotor, Difference (TTM − SoC) [2]: 9 | UWDRS symptom: Postural Arm Tremor, Difference (TTM − SoC) [2]: 8 | UWDRS symptom: Postural Leg Tremor, Difference (TTM − SoC) [2]: 9 | UWDRS symptom: Posture, Difference (TTM − SoC) [2]: 1 | UWDRS symptom: Pyramidal Signs, Difference (TTM − SoC) [2]: 4 | UWDRS symptom: RAM of Hands, Difference (TTM − SoC) [2]: 31 | UWDRS symptom: Rigidity, Difference (TTM − SoC) [2]: 5 | UWDRS symptom: Speech, Difference (TTM − SoC) [2]: 0 | UWDRS symptom: Stereotyped Actions, Difference (TTM − SoC) [2]: 1 | UWDRS symptom: Tremor at rest, Difference (TTM − SoC) [2]: 4 | UWDRS symptom: Wing-beating tremor, Difference (TTM − SoC) [2]: 9
